“Also recorded” adds a separate entry of the source. Where a name gives a salt, the structure may show the parent alone.
Key:
Abca4−/−Rdh8−/− mice [1] = test: Bright light-induced retinal degeneration in Abca4−/−Rdh8−/− mice, OCT imaging of retinal structure; type: in vivo, mouse; conditions: for Percent of mice with: subeffective doses BRM 0.1, MTP 1, TAM 0.05, DOX 1 mg/kg bw, OCT 7 days; for retinal / photoreceptor morphology by OCT imaging: pretreatment before light 10,000 lux 30 min, OCT 7 days after light exposure; for retinal protection at full individual dose: BRM 1, MTP 10, TAM 2.5 mg/kg bw individually; for light-exposed mice with complete retinal protection: lower doses BRM 0.1, MTP 1, TAM 0.05 mg/kg bw, alone or all three combined
BALB/c mice = test: Light-induced retinal degeneration in BALB/c mice, retinal morphology (OCT, histology, IHC); type: in vivo, mouse; conditions: for retinal morphology / ONL (OCT, histology): ip pretreatment 30 min before 10,000 lux, 7 days after light
[2] = biological target: T1, Dopamine D4 receptor (D4R) (Homo sapiens, UniProt P21917); test: BRET assay for G protein activation in live cells, D4R-Go; type: cell-based; conditions: for agonistic activity on D4R (BRET signal): HEK293T/17 cells, BRM 25 μM, MTP 100 μM, DOX 50 μM, TAM 100 μM
T1 construct: host or cells: HEK293T/17
T1 sequence (P21917 1-419): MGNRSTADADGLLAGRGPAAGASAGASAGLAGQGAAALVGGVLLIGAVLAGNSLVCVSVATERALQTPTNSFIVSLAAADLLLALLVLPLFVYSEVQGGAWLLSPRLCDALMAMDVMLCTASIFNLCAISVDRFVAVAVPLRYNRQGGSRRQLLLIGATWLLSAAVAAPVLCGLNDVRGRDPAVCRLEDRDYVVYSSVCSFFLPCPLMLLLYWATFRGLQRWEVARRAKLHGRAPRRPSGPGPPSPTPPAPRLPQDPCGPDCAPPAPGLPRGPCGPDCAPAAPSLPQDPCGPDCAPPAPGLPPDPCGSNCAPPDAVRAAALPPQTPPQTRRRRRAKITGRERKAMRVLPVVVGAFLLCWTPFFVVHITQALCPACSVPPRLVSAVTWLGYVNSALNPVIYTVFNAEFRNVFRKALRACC
Text: (§1) FIGS. 35(A-C) illustrate characterizing the activity of BRM, MTP, DOX, and TAM on dopamine and adrenaline receptors (A) Schematic representation of the BRET assay used to evaluate actions of drugs on selected GPCRs. […] The free Venus-Gβγ then interacts with the Gβγ-effector mimetic masGRK3ct-Nluc to produce the BRET signal. GDP, guanosine diphosphate; GRK, G protein-coupled receptor kinase; Nluc, nanoluciferase. (B) Left: Representative BRET signal traces recorded upon activation of D4R with indicated drugs in cells expressing Gαo and Venus-Gβγ, illustrating the agonism assay. Right: Representative traces of D2R responses to 1 μM dopamine in the absence (control) or presence of indicated drugs, illustrating antagonism assay. Note that, in the antagonism assay shown, the black trace overlaps with the red trace and therefore is not visible. (C) Top: Quantification of agonistic activity of ligands on D2R, D4R, D1R, and ADRA1A. D2R-GO, D4R-GO, D1R-Gs, and ADRA1A-Gq signaling were reconstituted in HEK293T/17 cells by transient transfection separately. Maximum amplitudes induced by dopamine (DA; 100 μM), noradrenaline (NA; 100 μM), BRM (25 μM), MTP (100 μM), DOX (50 μM), and TAM (100 μM) were plotted as bar graphs. […] The activity is plotted as percent inhibition. Data are means±SD. Results are representative of two independent experiments each performed with 12 replicates.
(§2) Dopamine D1, dopamine D4, and α1A-adrenergic receptors were purchased from cDNA Resource Center (Bloomsburg University, Bloomsburg, Pa.). Plasmid encoding the Flag-tagged, long isoform of the D2 dopamine receptor was a gift from A. Kovoor (University of Rhode Island). pCMV5 plasmids encoding GαoA were gifts from H. Itoh (Nara Institute of Science and Technology, Japan). Plasmids encoding Venus 156-239-Gβ1 and Venus 1-155-Gγ2 were gifts from N. Lambert (Georgia Regents University). Plasmids encoding RGS9-2, Gβ5S, R7BP, and masGRK3ct-Nluc were previously described.
(§3) BRET experiments were performed as previously reported with slight modifications. […] BRET measurements were performed using a microplate reader (POLARstar Omega, BMG Labtech) equipped with two emission photomultiplier tubes. […] The BRET signal is determined by calculating the ratio of the light emitted by Gβ1γ2-Venus (535 nm) over the light emitted by masGRK3ct-Nluc (475 nm). The average baseline value recorded before agonist stimulation was subtracted from BRET signal values, and the resulting difference (ABRET ratio) was obtained.
(§4) We used a real-time kinetic assay in which G protein activation by GPCRs is quantified by monitoring changes in the bioluminescence resonance energy transfer (BRET) signal between Venus-tagged Gβγ and its luciferase-tagged reporter in living cells (FIG. 35A). […]

[3] = biological target: T2, Dopamine D1 receptor (D1R) (Homo sapiens, UniProt P21728); test: BRET assay for G protein activation in live cells, D1R-Gs; type: cell-based; conditions: for antagonistic activity on D1R (inhibition of BRET signal): preincubation with ligand, then 1 μM dopamine
T2 construct: host or cells: HEK293T/17
T2 sequence (P21728 whole entry): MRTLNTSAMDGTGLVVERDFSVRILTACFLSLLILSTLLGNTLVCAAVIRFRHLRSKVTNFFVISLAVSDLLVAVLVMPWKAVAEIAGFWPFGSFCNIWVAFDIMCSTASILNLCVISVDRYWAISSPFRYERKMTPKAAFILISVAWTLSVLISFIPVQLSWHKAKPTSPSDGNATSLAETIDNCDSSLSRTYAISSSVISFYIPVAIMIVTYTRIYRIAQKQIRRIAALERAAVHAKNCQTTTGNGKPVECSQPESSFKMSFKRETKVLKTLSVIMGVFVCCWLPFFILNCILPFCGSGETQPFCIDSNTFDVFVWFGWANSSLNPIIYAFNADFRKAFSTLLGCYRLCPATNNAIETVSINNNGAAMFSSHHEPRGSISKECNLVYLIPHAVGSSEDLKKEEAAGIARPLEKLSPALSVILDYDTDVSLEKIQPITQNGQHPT
Text: as §1, §2, §3, §4

Abca4−/−Rdh8−/− mice [4] = test: Bright light-induced retinal degeneration in Abca4−/−Rdh8−/− mice, ERG retinal function; conditions: pretreatment before light 10,000 lux 30 min; ERG 7 days to 2 weeks after; listed as DOX
[5] = biological target: T3, D2 dopamine receptor (D2R) (Homo sapiens, UniProt P14416); test: BRET assay for G protein activation in live cells, D2R-Go; type: cell-based; conditions: for antagonistic activity on D2R (inhibition of BRET signal): preincubation with ligand, then 1 μM dopamine
T3 construct: Flag; host or cells: HEK293T/17
T3 sequence (P14416 whole entry): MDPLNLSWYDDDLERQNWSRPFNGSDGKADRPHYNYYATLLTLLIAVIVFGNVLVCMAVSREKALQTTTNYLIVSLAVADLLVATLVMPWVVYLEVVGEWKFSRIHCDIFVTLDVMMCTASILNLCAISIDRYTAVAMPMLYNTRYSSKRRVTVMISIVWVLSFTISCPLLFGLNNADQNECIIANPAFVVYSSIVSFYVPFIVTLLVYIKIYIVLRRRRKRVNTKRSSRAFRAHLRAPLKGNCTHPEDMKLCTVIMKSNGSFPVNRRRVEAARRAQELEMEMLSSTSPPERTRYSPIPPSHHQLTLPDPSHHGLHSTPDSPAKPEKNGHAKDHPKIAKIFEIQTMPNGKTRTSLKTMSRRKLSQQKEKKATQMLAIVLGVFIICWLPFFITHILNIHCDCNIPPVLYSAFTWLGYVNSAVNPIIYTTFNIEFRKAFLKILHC
Text: as §1, with “Results are representative of two independent experiments each performed with 12 replicates.” left out
as §3, §4

[6] = Table 14 (complete protection, ONL ≥50 μm)
[7] = Table 14 (no protection, ONL ≤20 μm)
[8] = HEK293T/17 cells, BRM 25 μM, MTP 100 μM, DOX 50 μM, TAM 100 μM

Compound	Percent of mice with (Abca4−/−Rdh8−/− mice [1]; [6])	Percent of mice with (Abca4−/−Rdh8−/− mice [1]; [7])	retinal / photoreceptor morphology by OCT imaging (Abca4−/−Rdh8−/− mice [1]; listed as DOX)	half maximal effective (protective) dose (Abca4−/−Rdh8−/− mice [1]; protection from bright light-induced degeneration, dose-response, FIG. 25A/B) [mg/kg]	retinal morphology / ONL (OCT, histology) (BALB/c mice)	agonistic activity on D4R (BRET signal) [2]	antagonistic activity on D1R (inhibition of BRET signal) [3]	retinal function by ERG (a-wave and b-wave amplitudes) (Abca4−/−Rdh8−/− mice [4])	retinal protection at full individual dose (Abca4−/−Rdh8−/− mice [1])	light-exposed mice with complete retinal protection (Abca4−/−Rdh8−/− mice [1]) [%]	retinal / photoreceptor morphology by OCT imaging (Abca4−/−Rdh8−/− mice [1])	PNA staining of cone photoreceptors (BALB/c mice; BRM 2.5 mg/kg bw, MTP 10 mg/kg bw)	agonistic activity on D2R (BRET signal) [5, 8]	antagonistic activity on D2R (inhibition of BRET signal) [5]	antagonistic activity on D4R (inhibition of BRET signal) ([2]; preincubation with ligand, then 1 μM dopamine)	agonistic activity on D1R (BRET signal) [3, 8]	retinal / photoreceptor morphology by OCT imaging (Abca4−/−Rdh8−/− mice [1]; listed as TAM)
COc1cc2nc(N3CCN(C(=O)C4COc5ccccc5O4)CC3)nc(N)c2cc1OC.CS(=O)(=O)O (centres unmarked) [Doxazosin]	0% of mice	100% of mice	substantial protection on photoreceptor morphology; also recorded: dose-dependent fashion	0.4	retinal morphology of drug-treated mice was maintained	partial agonistic effect	partial antagonistic effect	substantial preservation of the scotopic ERG response; also recorded: substantial preservation of this response	–	–	–	–	–	–	–	–	–
COCCc1ccc(OCC(O)CNC(C)C)cc1 (centres unmarked) [MTP, metoprolol tartrate]	25% of mice	41.7% of mice	–	–	preserved the ONL	no agonistic or antagonistic effects	no agonistic or antagonistic effects	–	Complete retinal protection	25	dose-dependent retinal protection	nearly normal pattern of PNA staining	no agonistic or antagonistic effects	no agonistic or antagonistic effects	no agonistic or antagonistic effects	no agonistic or antagonistic effects	–
CCOc1ccccc1OCCN[C@H](C)Cc1ccc(OC)c(S(N)(=O)=O)c1.Cl [Tamsulosin]	16.7% of mice	58.3% of mice	–	–	–	partial agonistic effect	partial antagonist	–	Complete retinal protection	17	–	–	–	antagonistic activity	–	–	substantial protection on photoreceptor morphology; also recorded: dose-dependent retinal protection

Source: US10426773B2, “Systems pharmacology for treating ocular disorders” (Case Western Reserve Univeristy, priority 2011, dated 2019)
